As usually defined, the EC50 is the concentration at which the effect is half-maximal. Low readings indicate a more potent agent, high ones a less potent agent.

The test deals with Ras-related C3 botulinum toxin substrate 1 (Mus musculus, UniProt P63001). The test is described as follows: wildtype Rac1 GTP binding inhibitors, dose response, biochemical, multiplex bead flow cytometry (AID 1340). For orientation: A flow cytometer gives signals particle by particle.
For the molecule `O=C1/C(=C\c2cccnc2)Sc2ccccc21` [(2E)-2-(3-pyridinylmethylidene)-1-benzothiophen-3-one], the concentration for a half-maximal effect (EC50) was 93100 nM.

The molecule `O=C(COc1ncnc2cc([N+](=O)[O-])ccc12)NCCc1ccc(Cl)cc1` [MLS000335629] showed a concentration for a half-maximal effect (EC50) of 5410 nM.

`O=C(NNC(=S)NCc1ccc(Cl)cc1)c1ccc(Br)o1` [1-[(5-bromanylfuran-2-yl)carbonylamino]-3-[(4-chlorophenyl)methyl]thiourea] gave an EC50 of 85.7 nM.

`N#Cc1c(-c2ccccc2)nc(SCC(=O)Nc2ccccc2)[nH]c1=O` [2-[(5-cyano-4-oxo-6-phenyl-1H-pyrimidin-2-yl)thio]-N-phenylacetamide] registered an EC50 of 3540 nM.

In the case of `Cc1ccc(C)c(OCCn2cc(C(=O)O)c3ccccc32)c1` [1-[2-(2,5-dimethylphenoxy)ethyl]-3-indolecarboxylic acid], the concentration for a half-maximal effect (EC50) amounted to 802 nM.

The molecule `O=C(Nc1nc(-c2ccc(S(=O)(=O)N3CCCC3)cc2)cs1)c1ccco1` [MLS000049286] showed a concentration for a half-maximal effect (EC50) of 1760 nM.

The molecule `O=C(O)/C=C/c1cn(Cc2ccccc2)nc1-c1ccc(Cl)cc1` [(E)-3-[1-benzyl-3-(4-chlorophenyl)pyrazol-4-yl]acrylic acid] gave a concentration for a half-maximal effect (EC50) of 164 nM.

`O=C(O)c1ccccc1Sc1ncnc2sc3c(c12)CCC3` gave an EC50 of 1220 nM.

For `O=C(O)c1ccccc1NCCc1ccc(Cl)cc1` [2-[2-(4-chlorophenyl)ethylamino]benzoic acid], the EC50 came to 1520 nM.

In the case of `COc1ccccc1NCc1sc(C(=O)O)cc1C` [4-methyl-5-(o-anisidinomethyl)-2-thenoic acid], the midpoint of the response, the EC50, lay at 16000 nM.

In the case of `Cc1cc(C)cc(N=Cc2[nH]c3ccc(Br)c(Cl)c3c2O)c1` [(2Z)-5-bromo-4-chloro-2-[(3,5-dimethylanilino)methylidene]-1H-indol-3-one], the concentration for a half-maximal effect (EC50) came out at 3030 nM.

Take `Cc1cc(C(=O)Oc2ccccc2C(=O)O)c(C)o1` [2-(2,5-dimethyl-3-furoyl)oxybenzoic acid]: a half-maximal response (EC50) required 102 nM.

`COc1ccc(-c2nnc(SCC(=O)c3cccs3)o2)cc1` [2-[[5-(4-methoxyphenyl)-1,3,4-oxadiazol-2-yl]sulfanyl]-1-thiophen-2-yl-ethanone] showed a half-maximal effective concentration (EC50) of 6390 nM.

Regarding `COc1cc(SC#N)ccc1N=Cc1c(C)[nH]n(-c2ccc(C)c(C)c2)c1=O` [[4-[[(Z)-[1-(3,4-dimethylphenyl)-3-methyl-5-oxidanylidene-pyrazol-4-ylidene]methyl]amino]-3-methoxy-phenyl] thiocyanate], the EC50 amounted to 966 nM.

The molecule `OC(CNCCc1ccc(Cl)cc1)COc1ccc2ccccc2c1` (configuration not stated) [1-[2-(4-chlorophenyl)ethylamino]-3-(2-naphthalenyloxy)-2-propanol] displayed a concentration for a half-maximal effect (EC50) of 7190 nM.

With `Cc1cc(C)c(C)c(C(=O)c2ccccc2C(=O)O)c1C` [2-(2,3,5,6-tetramethylbenzoyl)benzoic acid], the EC50 was 2240 nM.

In turn, `CCCc1nc2c(=O)n(C)c(=O)nc-2n(C)n1` [1,6-dimethyl-3-propyl-pyrimido[5,4-e][1,2,4]triazine-5,7-dione] came in with an EC50 of 623 nM.

Molecule `CCn1nc(C(=O)OCC(=O)c2cc(C)n(Cc3cccs3)c2C)c2ccccc2c1=O` [3-ethyl-4-keto-phthalazine-1-carboxylic acid [2-[2,5-dimethyl-1-(2-thenyl)pyrrol-3-yl]-2-keto-ethyl] ester] showed a 50% effective concentration (EC50) of 892 nM.

For `O=C(C#Cc1ccccc1)c1cccc([N+](=O)[O-])c1` [1-(3-nitrophenyl)-3-phenyl-2-propyn-1-one], the concentration giving a half-maximal response (EC50) was 19200 nM.

Take `CN1C(=O)N(C)c2ccc(C=O)c3cccc1c23` [1,3-dimethyl-2-oxidanylidene-perimidine-6-carbaldehyde]: the EC50 was 20800 nM.

`CC(C)Oc1ccc(C=NNC(=O)c2ccc(N(Cc3ccccc3)S(C)(=O)=O)cc2)cc1` [4-[benzyl(mesyl)amino]-N-[(4-isopropoxybenzylidene)amino]benzamide] returned a 50% effective concentration (EC50) of 5170 nM.

`Cc1cccc(-n2nc(CC#N)c(C#N)c2N)c1` [5-amino-3-(cyanomethyl)-1-(3-methylphenyl)-4-pyrazolecarbonitrile] showed an EC50 of 28400 nM.

As to `COCCn1c(=S)[nH]c2cc(C(=O)N3CCc4ccccc4C3)ccc2c1=O` [SMR000310652], the half-maximal effective concentration (EC50) was 605 nM.

On to `Cc1ccccc1C(=O)Nc1ccc2c(C#N)c3nc4ccccc4nc3n2c1` [MLS000591720], for which the concentration giving a half-maximal response (EC50) is 291 nM.

`N=C(N)NS(=O)(=O)c1ccc(NC(=S)NC(=O)c2ccc3c(c2)OCO3)cc1` [MLS000621545] yielded an EC50 of 2800 nM.

Regarding `COc1ccc(C(=O)CC=Nc2ccc(S(=O)(=O)Nc3nc(C)cc(C)n3)cc2)cc1OC` [4-[3-(3,4-Dimethoxy-phenyl)-3-oxo-propenylamino]-N-(4,6-dimethyl-pyrimidin-2-yl)-benzenesulfonamide], the response was half-maximal at 3120 nM (EC50).

Turning to `NC(=S)NNC1=c2cc(F)ccc2=NC1=O` [[(5-fluoro-2-oxoindol-3-yl)amino]thiourea], the midpoint of the response, the EC50, lay at 3460 nM.

The molecule `CCOc1ccc(/C=C2\SC(N3CCc4ccccc4C3)=NC2=O)cc1` [(5Z)-2-(3,4-dihydro-1H-isoquinolin-2-yl)-5-(4-ethoxybenzylidene)-2-thiazolin-4-one] showed an EC50 of 4020 nM.

`CC(=O)c1c(C)[nH]c(C(=O)N2CCc3ccccc3C2)c1C` [1-[5-(3,4-dihydro-1H-isoquinolin-2-ylcarbonyl)-2,4-dimethyl-1H-pyrrol-3-yl]ethanone] displayed a half-maximal effective concentration (EC50) of 5130 nM.

`CCN(CC)c1ccc2cc(-c3nc(-c4ccc(OC)cc4)cs3)c(=O)oc2c1` [7-(diethylamino)-3-[4-(4-methoxyphenyl)-1,3-thiazol-2-yl]chromen-2-one] returned an EC50 of 372 nM.

Take `COc1cc(CN=Nc2nnc3c(n2)[nH]c2ccccc23)ccc1O`: the half-maximal effective concentration (EC50) is 634 nM.

In turn, `O=C(O)CCN1C(=O)/C(=C/c2ccc(-c3nc4ccccc4s3)o2)SC1=S` [3-[(5Z)-5-[[5-(1,3-benzothiazol-2-yl)furan-2-yl]methylidene]-4-oxo-2-sulfanylidene-1,3-thiazolidin-3-yl]propanoic acid] yielded a concentration giving a half-maximal response (EC50) of 976 nM.

Turning to `O=C(O)/C=C/c1cn(Cc2ccccc2)nc1-c1cccs1` [(E)-3-(1-benzyl-3-thiophen-2-ylpyrazol-4-yl)prop-2-enoic acid], the half-maximal effective concentration (EC50) was found to be 2280 nM.

`O=C(O)c1cn(CCOc2ccccc2)c2ccccc12` [1-(2-phenoxyethyl)-3-indolecarboxylic acid] gave an EC50 of 5440 nM.

`Cc1cc(C(=O)Cn2nc(C(=O)O)c3ccccc3c2=O)c(C)n1-c1ccc(OC(F)F)cc1` [3-[2-[1-[4-(difluoromethoxy)phenyl]-2,5-dimethyl-3-pyrrolyl]-2-oxoethyl]-4-oxo-1-phthalazinecarboxylic acid] registered an EC50 of 5900 nM.

`CC1(C)Cc2c(sc(NC(=S)NC(=O)c3ccccc3)c2C(=O)O)CO1` [2-(benzoylcarbamothioylamino)-5,5-dimethyl-4,7-dihydrothieno[2,3-c]pyran-3-carboxylic acid]: a half-maximal effect (EC50) was put at 80.6 nM.

`COc1ccc(Cl)cc1NCc1sc(C(=O)O)cc1C` [5-[(5-chloro-2-methoxy-anilino)methyl]-4-methyl-2-thenoic acid]: the EC50 is 1820 nM.

`CCOC(=O)CN(C(=O)CSc1nnc2c(n1)[nH]c1ccc(OC)cc12)c1ccc(F)cc1` [ethyl 2-[(4-fluorophenyl)-[2-[(8-methoxy-5H-[1,2,4]triazino[5,6-b]indol-3-yl)sulfanyl]ethanoyl]amino]ethanoate] yielded an EC50 of 923 nM.

Turning to `O=C(NC1CCCCC1)c1cc([N+](=O)[O-])n[nH]1` [MLS000559279], a half-maximal effect (EC50) was put at 55300 nM.

Molecule `COc1cc(C=NNC(=O)c2sc(N)nc2C)cc(OC)c1OC` [2-amino-4-methyl-N-[(3,4,5-trimethoxyphenyl)methylideneamino]-5-thiazolecarboxamide] came in with an EC50 of 1670 nM.

For the molecule `O=C(O)c1ccc(COc2ccccc2Cl)o1` [5-[(2-chloranylphenoxy)methyl]furan-2-carboxylic acid], the EC50 stood at 26300 nM.

On to `Cc1cc(NC(=O)CSc2nc(O)c(C#N)c(-c3ccccc3)n2)no1` [2-[(5-cyano-4-oxidanylidene-6-phenyl-1H-pyrimidin-2-yl)sulfanyl]-N-(5-methyl-1,2-oxazol-3-yl)ethanamide], for which the response was half-maximal at 9540 nM (EC50).

In turn, `CCOC(=O)c1nc(Nc2ccc(C(C)=O)cc2)c2ccccc2n1` [4-(4-acetylanilino)-2-quinazolinecarboxylic acid ethyl ester] came in with an EC50 of 3400 nM.

For `O=C(O)c1ccccc1NCc1ccccc1Cl` [2-[(2-chlorobenzyl)amino]benzoic acid], the midpoint of the response, the EC50, lay at 899 nM.

In the case of `Cc1sc2nc3ccc(NCc4ccco4)nn3c(=O)c2c1C` [7-(2-furanylmethylamino)-2,3-dimethyl-4-thieno[1,2]pyrimido[4,5-b]pyridazinone], the concentration for a half-maximal effect (EC50) was found to be 9210 nM.

In turn, `O=C(O)c1ccccc1OCc1ccccc1Br` [2-(2-bromobenzyl)oxybenzoic acid] came in with a concentration giving a half-maximal response (EC50) of 151 nM.

In turn, `CC(C)C(NCc1c(Cl)cccc1Cl)C(=O)O` (configuration not stated) [2-[(2,6-dichlorobenzyl)amino]-3-methyl-butyric acid] showed an EC50 of 5800 nM.

Source of the values: BindingDB's records for doi:10.7270/Q2377749 (Nmmlsc, 2010).
